From patent publication US20250215029A1 (Recludix Pharma, Inc., priority 2022, published 2025)
Like-named read-outs stand apart in the source and are kept apart here.

Legend:
[1] = biological target: T1, Recombinant STAT3 protein (STAT3 (G127-I722)) (Homo sapiens, UniProt P40763); assay: STAT3 Fluorescence Polarization (FP) Assay; type: binding; conditions: probe 5-FAM-GpYLPQTV-NH2 2 nM, 45-minute incubation
T1 construct: Recombinant STAT3 protein (STAT3 (G127-I722))
Summary of the method: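 Displacement of a fluorescent phosphotyrosine peptide (5-FAM-GpYLPQTV-NH2, 2 nM) from 25 nM recombinant STAT3 G127-I722 was monitored by FP after 45 min at room temperature.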

[2] = biological target: T2, Recombinant STAT6 protein (STAT6 (W123-T658)) (Homo sapiens, UniProt P42226); assay: STAT6 Fluorescence Polarization (FP) Assay; type: binding; conditions: probe 5-FAM-Ap[…]-NH2 2 nM, 45-minute incubation
T2 construct: Recombinant STAT6 protein (STAT6 (W123-T658))
T2 sequence (P42226 123-658): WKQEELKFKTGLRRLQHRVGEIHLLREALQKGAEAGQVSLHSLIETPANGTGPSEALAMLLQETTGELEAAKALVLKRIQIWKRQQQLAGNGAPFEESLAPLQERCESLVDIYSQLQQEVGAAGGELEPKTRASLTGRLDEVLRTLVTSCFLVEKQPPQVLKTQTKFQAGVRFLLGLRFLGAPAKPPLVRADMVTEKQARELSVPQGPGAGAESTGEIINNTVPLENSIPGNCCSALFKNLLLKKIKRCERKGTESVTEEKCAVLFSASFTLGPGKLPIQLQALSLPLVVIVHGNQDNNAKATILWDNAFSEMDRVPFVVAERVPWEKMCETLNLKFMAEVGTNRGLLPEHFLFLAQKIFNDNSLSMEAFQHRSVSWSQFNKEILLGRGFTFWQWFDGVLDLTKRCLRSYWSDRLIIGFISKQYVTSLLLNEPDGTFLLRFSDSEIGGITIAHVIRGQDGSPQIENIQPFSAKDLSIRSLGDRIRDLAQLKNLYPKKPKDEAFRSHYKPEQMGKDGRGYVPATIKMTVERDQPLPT
Summary of the method: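 STAT6 (W123-T658) at 250 nM was mixed with 2 nM 5-FAM-labeled phosphotyrosine peptide probe in HEPES pH 7.4 buffer with NaCl, EDTA, Tween 20 and DTT, then added to serially diluted compounds at 1% DMSO final. Polarization was read after 45 min at room temperature; IC50 came from nonlinear regression of mP versus log concentration.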

[3] = STAT3 25 nM, read-out: STAT3 (FP assay IC50)
[4] = STAT6 250 nM, read-out: STAT6 (FP assay IC50)
[5] = STAT3 (G127-I722) 25 nM, read-out: STAT3 (FP assay IC50 class)
[6] = STAT6 (W123-T658) 250 nM, read-out: STAT6 (FP assay IC50 class)

T1 sequence (P40763 127-722): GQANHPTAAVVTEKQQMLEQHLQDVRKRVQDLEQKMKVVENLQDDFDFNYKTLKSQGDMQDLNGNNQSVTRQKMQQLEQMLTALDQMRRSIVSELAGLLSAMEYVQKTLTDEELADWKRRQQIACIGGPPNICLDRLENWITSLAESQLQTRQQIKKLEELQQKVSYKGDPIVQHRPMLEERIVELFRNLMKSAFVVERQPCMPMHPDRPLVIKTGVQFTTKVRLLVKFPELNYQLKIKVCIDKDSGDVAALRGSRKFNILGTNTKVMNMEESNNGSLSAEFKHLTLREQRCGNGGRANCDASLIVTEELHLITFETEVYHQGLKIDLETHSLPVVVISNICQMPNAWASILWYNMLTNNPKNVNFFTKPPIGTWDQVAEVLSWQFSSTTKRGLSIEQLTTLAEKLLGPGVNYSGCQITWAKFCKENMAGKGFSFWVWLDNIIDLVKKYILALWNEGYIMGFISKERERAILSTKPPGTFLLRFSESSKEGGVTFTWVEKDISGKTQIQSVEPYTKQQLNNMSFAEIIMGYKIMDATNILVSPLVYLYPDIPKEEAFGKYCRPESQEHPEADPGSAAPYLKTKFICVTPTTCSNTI

SMILES | IC50 [1, 3] [nM] | IC50 [2, 4] [nM] | IC50 [1, 5] [nM] | IC50 [2, 6] [nM]
O=C(N[C@H]1CC[C@@H](O)C[C@H]2CC[C@@H](C(=O)N3CC(C(=O)N4CCOCC4)C3)N2C1=O)c1cc2cc(C(F)(F)P(=O)(O)O)ccc2s1 [Compound 2, (difluoro(2-(((3S,6S,9R,10aR)-9-hydroxy-3-(3-(morpholine-4-carbonyl)azetidine-1-carbonyl)-5-oxodecahydropyrrolo [1,2-a]azocin-6-yl)carbamoyl)benzo[b]thiophen-5-yl)methyl) phosphonic acid] | 100 to 1000 | 3000 to 30000 | – | –
COC1CN(c2ccncc2C2CN(C(=O)[C@@H]3CC[C@@H]4C[C@H](C)C[C@H](NC(=O)c5cc6cc(CP(=O)(O)O)ccc6s5)C(=O)N43)C2)C1 [Compound 933, ((2-(((3S,6S,8R,9aR)-3-(3-(4-(3-methoxyazetidin-1-yl)pyridin-3-yl)azetidine-1-carbonyl)-8-methyl-5-oxooctahydro-1H-pyrrolo[1,2-a]azepin-6-yl)carbamoyl)benzo [b]thiophen-5-yl)methyl) phosphonic acid] | – | – | < 100 | 3000 to 30000
O=C(N[C@H]1CCC[C@H]2CC[C@@H](C(=O)N3CC(c4cncc(F)c4)C3)N2C1=O)c1cc2cc(C(F)P(=O)(O)O)ccc2s1 (stereo partly drawn) [Compound 596, (fluoro(2-(((3S,6S,9aS)-3-(3-(5-fluoropyridin-3-yl)azetidine-1-carbonyl)-5-oxooctahydro-1H-pyrrolo[1,2-a]azepin-6-yl)carbamoyl)benzo [b]thiophen-5-yl)methyl) phosphonic acid] | – | – | 100 to 1000 | 3000 to 30000
CN(C)c1cccnc1C1CN(C(=O)[C@@H]2CC[C@@H]3CCC[C@H](NC(=O)c4cc5cc(C(F)P(=O)(O)O)ccc5s4)C(=O)N32)C1 (stereo partly drawn) [Compound 693, ((2-(((3S,6S,9aS)-3-(3-(3-(dimethylamino)pyridin-2-yl)azetidine-1-carbonyl)-5-oxooctahydro-1H-pyrrolo[1,2-a]azepin-6-yl)carbamoyl)benzo [b]thiophen-5-yl)fluoromethyl) phosphonic acid] | – | – | 1000 to 10000 | 3000 to 30000
CCC[C@@H]1CC[C@H](NC(=O)c2cc3cc([C@H](F)P(=O)(O)O)ccc3s2)C(=O)N2[C@H](CC[C@H]2C(=O)N2CC(c3cnccc3N3CCC3)C2)C1 [Compound 930, ((R)-(2-(((3S,6S,9R,10aR)-3-(3-(4-(azetidin-1-yl)pyridin-3-yl)azetidine-1-carbonyl)-5-oxo-9-propyldecahydro-pyrrolo[1,2-a]azocin-6-yl)carbamoyl)benzo [b]thiophen-5-yl)fluoromethyl) phosphonic acid] | – | – | 100 to 1000 | 3000 to 30000
O=C(N[C@H]1CCCC[C@H]2CC[C@@H](C(=O)NCc3ccn4ccnc4c3)N2C1=O)c1cc2cc(C(F)(F)P(=O)(O)O)ccc2s1 [Compound 828] | – | – | < 100 | 300 to 3000
Cn1ncc(C2CN(C(=O)[C@@H]3CC[C@@H]4CCC[C@H](NC(=O)c5cc6cc(C(F)P(=O)(O)O)ccc6s5)C(=O)N43)C2)c1O (stereo partly drawn) [Compound 607, (fluoro(2-(((3S,6S,9aS)-3-(3-(5-hydroxy-1-methyl-1H-pyrazol-4-yl)azetidine-1-carbonyl)-5-oxooctahydro-1H-pyrrolo[1,2-a]azepin-6-yl)carbamoyl)benzo [b]thiophen-5-yl)methyl) phosphonic acid] | – | – | < 100 | 300 to 3000
Cn1ncc(C2CN(C(=O)[C@@H]3CC[C@@H]4CCC[C@H](NC(=O)c5cc6cc(C(F)P(=O)(O)O)ccc6s5)C(=O)N43)C2)c1F (stereo partly drawn) [Compound 635, (fluoro(2-(((3S,6S,9aS)-3-(3-(5-fluoro-1-methyl-1H-pyrazol-4-yl)azetidine-1-carbonyl)-5-oxooctahydro-1H-pyrrolo[1,2-a]azepin-6-yl)carbamoyl)benzo [b]thiophen-5-yl)methyl) phosphonic acid] | – | – | 100 to 1000 | 3000 to 30000
CCc1ccncc1C1CN(C(=O)[C@@H]2CC[C@@H]3CCC[C@H](NC(=O)c4cc5cc(CP(=O)(O)O)ccn5n4)C(=O)N32)C1 [Compound 618, ((2-(((3S,6S,9aS)-3-(3-(4-ethylpyridin-3-yl)azetidine-1-carbonyl)-5-oxooctahydro-1H-pyrrolo[1,2-a]azepin-6-yl)carbamoyl)pyrazolo[1,5-a]pyridin-5-yl)methyl) phosphonic acid] | – | – | 1000 to 10000 | 3000 to 30000

More lines, now with the values ahead:

IC50 [1, 3] [nM] | IC50 [2, 4] [nM] | IC50 [1, 5] [nM] | IC50 [2, 6] [nM] | SMILES
100 to 1000 | ≤ 300 | – | – | N#C[C@@H]1CN(C(=O)[C@@H]2CC[C@@H]3CCCC[C@H](NC(=O)c4ccc5ccc(C(F)(F)P(=O)(O)O)cc5c4)C(=O)N32)C[C@H]1c1cc[nH]c(=O)c1 (relative stereo) [Compound 83, ((7-(((3S,6S,10aS)-3-(rel-(trans)-3-cyano-4-(2-oxo-1,2-dihydropyridin-4-yl)pyrrolidine-1-carbonyl)-5-oxodecahydropyrrolo [1,2-a]azocin-6-yl)carbamoyl)naphthalen-2-yl)difluoromethyl) phosphonic acid]
– | – | < 100 | 300 to 3000 | COCC1(c2ccccc2)CN(C(=O)[C@@H]2CC[C@@H]3CCC[C@H](NC(=O)c4cc5cc(C(F)(F)P(=O)(O)O)ccc5s4)C(=O)N32)C1 [Compound 777, (difluoro(2-(((3S,6S,9aS)-3-(3-(methoxymethyl)-3-phenylazetidine-1-carbonyl)-5-oxooctahydro-1H-pyrrolo[1,2-a]azepin-6-yl)carbamoyl)benzo [b]thiophen-5-yl)methyl) phosphonic acid]
1000 to 10000 | ≤ 300 | – | – | N#C[C@@H]1CN(C(=O)[C@@H]2C[C@@H](O)[C@@H]3CCCCC[C@H](NC(=O)c4cc5cc(C(F)(F)P(=O)(O)O)ccc5s4)C(=O)N23)C[C@H]1c1ccccc1 (relative stereo) [Compound 76, ((2-(((1R,3S,6S, 11aS)-3-(rel-(trans)-3-cyano-4-phenylpyrrolidine-1-carbonyl)-1-hydroxy-5-oxodecahydro-1H-pyrrolo[1,2-a]azonin-6-yl)carbamoyl)benzo[b]thiophen-5-yl)difluoromethyl) phosphonic acid]
– | – | < 100 | 3000 to 30000 | N#Cc1cnc(C2CN(C(=O)[C@@H]3CC[C@@H]4CCCC[C@H](NC(=O)c5cc6cc(C(F)(F)P(=O)(O)O)ccc6s5)C(=O)N43)C2)nc1 [Compound 806, ((2-(((3S,6S,10aS)-3-(3-(5-cyanopyrimidin-2-yl)azetidine-1-carbonyl)-5-oxodecahydropyrrolo [1,2-a]azocin-6-yl)carbamoyl)benzo [b]thiophen-5-yl)difluoromethyl) phosphonic acid]
1000 to 10000 | ≤ 300 | – | – | N#C[C@H]1CN(C(=O)[C@@H]2CC[C@@H]3CC[C@H](O)C[C@H](NC(=O)c4cc5cc(C(F)(F)P(=O)(O)O)ccc5s4)C(=O)N32)C[C@@H]1c1ccccc1 [Compound 12, ((2-(((3S,6S,8S,10aR)-3-((3R,4S)-3-cyano-4-phenylpyrrolidine-1-carbonyl)-8-hydroxy-5-oxodecahydropyrrolo [1,2-a]azocin-6-yl)carbamoyl)benzo[b]thiophen-5-yl)difluoromethyl) phosphonic acid]
– | – | 100 to 1000 | 300 to 3000 | O=C(N[C@H]1CCCC[C@H]2CC[C@@H](C(=O)N3CCC(O)(c4cc[nH]c(=O)c4)C3)N2C1=O)c1cc2cc(C(F)(F)P(=O)(O)O)ccc2s1 (stereo partly drawn) [Compound 513, (difluoro(2-(((3S,6S,10aS)-3-(3-hydroxy-3-(2-oxo-1,2-dihydropyridin-4-yl)pyrrolidine-1-carbonyl)-5-oxodecahydropyrrolo[1,2-a]azocin-6-yl)carbamoyl)benzo[b]thiophen-5-yl)methyl)phosphonic acid]
< 100 | 3000 to 30000 | – | – | O=C(N[C@H]1CCC[C@H]2CCC[C@@H](C(=O)N3CC(n4ccnc4)C3)N2C1=O)c1cc2cc(C(F)(F)P(=O)(O)O)ccc2s1 [Compound 60, ((2-(((4S,7S,10aS)-4-(3-(1H-imidazol-1-yl)azetidine-1-carbonyl)-6-oxodecahydropyrido [1,2-a]azepin-7-yl)carbamoyl)benzo[b]thiophen-5-yl)difluoromethyl) phosphonic acid]
